The test system of one series is endogenous TFE3. As to the kind of experiment: TFE3 nuclear translocation, immunocytochemistry high-content imaging. The format is cell-based.
For series [1], the system named is SH-SY5Y cells. The note with it: human, 24 h, 1 µM.
The subject of series [2] is SH-SY5Y cells.
Source text: The PKIS2 Library was supplied by The Structural Genomics Consortium at the University of North Carolina at Chapel Hill.
The test system of series [3] is SH-SY5Y cells. Put plainly: Chemotype enrichment analysis of PKIS2 primary screen hit categories.
Series [4] has as its system SH-SY5Y cells. The note with it: human, 24 h, 1 µM. The source holds these as a separate data set.
Procedure: Total cell lysis with 5 µL 5% Triton-X 100 (Sigma-Aldrich, T8787) is used as a positive control for the assay and toxicity is expressed as a percentage of luminescence under DMSO conditions.
Another series concerns endogenous TFEB. As to the kind of experiment: TFEB nuclear translocation, immunocytochemistry high-content imaging. The format is cell-based.

Structures are written as SMILES. Read-outs that look alike come from different tables or passages of the source.
For AK in this document: reference of the scale not given here.
For DQ Intensity in this document: reference of the scale not given here.
For DQ Spot in this document: reference of the scale not given here.
For Nuclear Count in this document: reference of the scale not given here.

The compound `Nc1n[nH]c2ncc(-c3ccccc3)cc12` [SB-517081] showed a TFE3 % in the series on endogenous TFE3 of 10.19%. The “Nuclear Count” value with SH-SY5Y cells [1] (SH-SY5Y cells) is recorded as 74.04. In the series on SH-SY5Y cells [2], the “DQ Intensity” value came out at 121.05 and the “DQ Spot” value was 122.46. The Outcome entry in the series on SH-SY5Y cells [3] is on record as “DQ Only”. This compound also yielded an AK with SH-SY5Y cells [4] (SH-SY5Y cells) of 82.09. In the series on endogenous TFEB, this compound returned a TFEB % of 4.88%.

For the compound `Nc1n[nH]c2nnc(-c3ccccc3)cc12` [SB-517389], the TFE3 % with endogenous TFE3 is recorded as 18.57%. Also, in the series with SH-SY5Y cells [1] (SH-SY5Y cells), the “Nuclear Count” value was determined as 69.78. In addition, in the series on SH-SY5Y cells [2], the “DQ Intensity” value was 136.15 and the “DQ Spot” value was 127.72. Further, the Outcome entry in the series with SH-SY5Y cells [3] was “DQ Only”. Also, in the series on SH-SY5Y cells [4] (SH-SY5Y cells), the AK came to 99.42. Further, in the series on endogenous TFEB, the TFEB % is listed as 5.21%.

In the series with endogenous TFE3, `CCCC(=O)Nc1n[nH]c2ncc(-c3cccc4ccccc34)cc12` [SB-642057] displayed a TFE3 % of 14.05%. In the series on SH-SY5Y cells [1] (SH-SY5Y cells), the “Nuclear Count” value is recorded as 59.85. Moreover, in the series on SH-SY5Y cells [2], the “DQ Intensity” value is given as 126.93 and the “DQ Spot” value was found to be 107.10. The Outcome result in the series with SH-SY5Y cells [3] is on record as “TOXIC”. For the same compound, in the series on SH-SY5Y cells [4] (SH-SY5Y cells), the AK was 230.70. Further, the TFEB % with endogenous TFEB is on record as 5.52%.

On to `O=C(Nc1n[nH]c2nc(-c3ccc(O)cc3)ccc12)C1CC1` [SB-710363], for which the TFE3 % with endogenous TFE3 was determined as 18.16%. Besides, in the series with SH-SY5Y cells [1] (SH-SY5Y cells), the “Nuclear Count” value was 103.55. In the series with SH-SY5Y cells [2], the “DQ Intensity” value came to 87.11 and the “DQ Spot” value worked out at 130.75. Moreover, in the series on SH-SY5Y cells [3], the Outcome result is “DQ Only”. The compound further gave an AK in the series on SH-SY5Y cells [4] (SH-SY5Y cells) of 133.76. The compound also displayed a TFEB % in the series with endogenous TFEB of 15.49%.

In the series with endogenous TFE3, `O=C(Nc1n[nH]c2nc(-c3cccc(O)c3)ccc12)C1CC1` [SB-711805] had a TFE3 % of 23.15%. In addition, the “Nuclear Count” value in the series on SH-SY5Y cells [1] (SH-SY5Y cells) was determined as 107.31. For the same compound, in the series on SH-SY5Y cells [2], the “DQ Intensity” value is given as 78.27 and the “DQ Spot” value is reported as 112.05. The Outcome entry in the series on SH-SY5Y cells [3] is listed as “TFE3”. Further, the AK in the series on SH-SY5Y cells [4] (SH-SY5Y cells) was 105.72. Moreover, the TFEB % in the series on endogenous TFEB is given as 10.76%.

`O=C(Nc1n[nH]c2nc(-c3ccccc3)c(Cl)cc12)C1CC1` [SB-734909] yielded a TFE3 % in the series on endogenous TFE3 of 10.45%. Also, in the series with SH-SY5Y cells [1] (SH-SY5Y cells), the “Nuclear Count” value amounted to 45.35. Moreover, in the series on SH-SY5Y cells [2], the “DQ Intensity” value came out at 123.78 and the “DQ Spot” value came out at 126.24. In addition, the Outcome entry in the series on SH-SY5Y cells [3] is “DQ Only”. Moreover, the AK in the series on SH-SY5Y cells [4] (SH-SY5Y cells) is listed as 83.64. In the series with endogenous TFEB, this compound registered a TFEB % of 6.63%.

The compound `O=C(Nc1n[nH]c2nc(-c3cccs3)c(Br)cc12)C1CC1` [SB-735297] gave a TFE3 % in the series with endogenous TFE3 of 10.45%. The “Nuclear Count” value in the series with SH-SY5Y cells [1] (SH-SY5Y cells) is recorded as 125.04. In addition, in the series with SH-SY5Y cells [2], the “DQ Intensity” value is on record as 103.59 and the “DQ Spot” value is 106.97. This compound also returned an AK in the series with SH-SY5Y cells [4] (SH-SY5Y cells) of 112.72. In the series with endogenous TFEB, this compound displayed a TFEB % of 7.45%.

Turning to `O=C(Nc1n[nH]c2cc(-c3cccc(F)c3)ccc12)C1CC1` [SB-735464], in the series on endogenous TFE3, the TFE3 % came out at 14.17%. In addition, in the series with SH-SY5Y cells [1] (SH-SY5Y cells), the “Nuclear Count” value is listed as 95.28. In the series with SH-SY5Y cells [2], the “DQ Intensity” value was 82.14 and the “DQ Spot” value was 107.31. Moreover, the AK in the series on SH-SY5Y cells [4] (SH-SY5Y cells) is 75.61. In addition, in the series on endogenous TFEB, the TFEB % is 2.08%.

Compound `O=C(Nc1n[nH]c2cc(-c3ccoc3)ccc12)C1CC1` [SB-738481] came in with a TFE3 % in the series on endogenous TFE3 of 12.05%. Moreover, the “Nuclear Count” value in the series on SH-SY5Y cells [1] (SH-SY5Y cells) is recorded as 105.01. In the series on SH-SY5Y cells [2], the “DQ Intensity” value is on record as 82.31 and the “DQ Spot” value was found to be 113.23. In the series with SH-SY5Y cells [4] (SH-SY5Y cells), this compound returned an AK of 109.29. Also, the TFEB % in the series with endogenous TFEB was 6.46%.

For `O=C(Nc1n[nH]c2nc(-c3nccs3)c(Br)cc12)C1CC1` [SB-742251], in the series with endogenous TFE3, the TFE3 % was 5.59%. The “Nuclear Count” value in the series on SH-SY5Y cells [1] (SH-SY5Y cells) is reported as 130.73. In the series with SH-SY5Y cells [2], the “DQ Intensity” value was 109.29 and the “DQ Spot” value worked out at 109.81. The compound further registered an AK in the series on SH-SY5Y cells [4] (SH-SY5Y cells) of 80.83. Also, the TFEB % in the series on endogenous TFEB was found to be 12.43%.

The compound `O=C(Nc1n[nH]c2nc(-c3nccs3)c(Br)cc12)C1CCCC1` [SB-742609] registered a TFE3 % in the series on endogenous TFE3 of 7.93%. Also, the “Nuclear Count” value in the series with SH-SY5Y cells [1] (SH-SY5Y cells) is listed as 69.12. In the series on SH-SY5Y cells [2], the “DQ Intensity” value is given as 95.35 and the “DQ Spot” value was 108.28. The AK in the series with SH-SY5Y cells [4] (SH-SY5Y cells) was found to be 69.40. In the series on endogenous TFEB, this compound yielded a TFEB % of 8.05%.

Compound `O=C(Nc1n[nH]c2nc(-c3cccs3)c(Br)cc12)C1CCCC1` [SB-743341] came in with a TFE3 % with endogenous TFE3 of 12.29%. For the same compound, the “Nuclear Count” value in the series on SH-SY5Y cells [1] (SH-SY5Y cells) is reported as 111.90. Besides, in the series on SH-SY5Y cells [2], the “DQ Intensity” value is 118.79 and the “DQ Spot” value was 104.54. This compound also displayed an AK in the series with SH-SY5Y cells [4] (SH-SY5Y cells) of 91.49. In the series with endogenous TFEB, the TFEB % was 21.21%.

`COc1cccc(C2=C(Nc3ccc(Cl)c(C(=O)O)c3)C(=O)NC2=O)c1` [UNC10225038A] registered a TFE3 % with endogenous TFE3 of 15.59%. In the series with SH-SY5Y cells [1] (SH-SY5Y cells), the “Nuclear Count” value is listed as 91.66. Further, in the series on SH-SY5Y cells [2], the “DQ Intensity” value is given as 120.07 and the “DQ Spot” value stood at 110.06. In the series with SH-SY5Y cells [4] (SH-SY5Y cells), this compound came in with an AK of 67.98. The TFEB % in the series with endogenous TFEB stood at 4.97%.

`COc1ccccc1C1=C(Nc2cccc(O)c2)C(=O)NC1=O` [UNC10225043A]: the TFE3 % with endogenous TFE3 is listed as 13.36%. The “Nuclear Count” value in the series with SH-SY5Y cells [1] is listed as 83.80. Besides, in the series on SH-SY5Y cells [2], the “DQ Intensity” value came out at 136.47 and the “DQ Spot” value worked out at 112.45. In the series on SH-SY5Y cells [4], this compound came in with an AK of 125.63. Also, the TFEB % in the series with endogenous TFEB worked out at 8.14%.

Source of the values: PMC9851200, “Multiparameter phenotypic screening for endogenous TFEB and TFE3 translocation identifies novel chemical series modulating lysosome function” (Autophagy, 2022).
